Results from patent US11566007B2, “Ras inhibitors” (Revolution Medicines, Inc., priority 2019, dated 2023).
Read-outs that look alike come from different tables or passages of the source.

Legend:
NRAS Q61R = NRAS Q61R (Homo sapiens (Human), UniProt P01111+P62937, Q61R); test: Ras-Raf (BRAF RBD) disruption / FRET / MOA assay, NRAS Q61R; assay type: biochemical; conditions: NRAS Q61R; Ras-Raf disruption/FRET/MOA assay; read-out: IC50* NRAS Q61R FRET data
Method in brief: (§1)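 Compounds (30 μM top final, 10-point 3-fold dilutions) incubated 3 h at 25° C with nucleotide-loaded Ras, cyclophilin A and BRAF RBD. Detection with 10 nM anti-His Eu-W1024 and 50 nM anti-GST allophycocyanin over another 1.5 h. Lowered TR-FRET ratio relative to DMSO wells gives IC50.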

NCI-H358 (K-Ras G12C) = test: CellTiter-Glo cell viability assay, NCI-H358; assay type: cell-based, human; conditions: Homo sapiens, NCI-H358, 120 h, class symbols
Method in brief: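 Compounds were dispensed directly onto K-Ras mutant cells and incubated until day 5, then plates were equilibrated to room temperature for about 30 minutes before CellTiter-Glo luminescence. Signals were normalized as (sample/average DMSO)*100 and fitted by four-parameter logistic fit.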

KRAS G12S = KRAS G12S (Homo sapiens (Human), UniProt P01116+P62937, G12S); test: Ras-Raf (BRAF RBD) disruption / FRET / MOA assay, KRAS G12S; assay type: biochemical; conditions: class symbols
Method in brief: (§2)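 A 10-point, 3-fold dilution series topping at 30 μM final was incubated 3 h at 25° C with the Ras/cyclophilin A/BRAF RBD mixture.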

NRAS G12C = NRAS G12C (Homo sapiens (Human), UniProt P01111+P62937, G12C); test: Ras-Raf (BRAF RBD) disruption / FRET / MOA assay, NRAS G12C; assay type: biochemical
Method in brief: as §2

KRAS G12V = KRAS G12V (Homo sapiens (Human), UniProt P01116+P62937, G12V); test: Ras-Raf (BRAF RBD) disruption / FRET / MOA assay, KRAS G12V; assay type: biochemical
Method in brief: as §2

K-Ras G13C = K-Ras G13C (Homo sapiens (Human), UniProt P01116+P62937, G13C); test: Ras-Raf (BRAF RBD) disruption / FRET / MOA assay, KRAS G13C; assay type: biochemical; conditions: KRAS G13C, Ras-Raf disruption/FRET/MOA assay
Method in brief: as §2

NRAS Q61K = NRAS Q61K (Homo sapiens (Human), UniProt P01111+P62937, Q61K); test: Ras-Raf (BRAF RBD) disruption / FRET / MOA assay, NRAS Q61K; assay type: biochemical; conditions: NRAS Q61K; Ras-Raf disruption/FRET/MOA assay; read-out: IC50* NRAS Q61K FRET data
Method in brief: as §1

K-Ras G12C = K-Ras G12C (Homo sapiens (Human), UniProt P01116+P62937, G12C); test: Ras-Raf (BRAF RBD) disruption / FRET / MOA assay, KRAS G12C; assay type: biochemical; conditions: KRAS G12C, Ras-Raf disruption/FRET/MOA assay
Method in brief: as §2

KRAS G12D = KRAS G12D (Homo sapiens (Human), UniProt P01116+P62937, G12D); test: Ras-Raf (BRAF RBD) disruption / FRET / MOA assay, KRAS G12D; assay type: biochemical; conditions: class symbols
Method in brief: as §2

KRAS Q61H = KRAS Q61H (Homo sapiens (Human), UniProt P01116+P62937, Q61H); test: Ras-Raf (BRAF RBD) disruption / FRET / MOA assay, KRAS Q61H; assay type: biochemical; conditions: Ras-Raf disruption/FRET/MOA assay; class symbols; read-out: KRAS Q61H FRET data IC50
Method in brief: as §1

NRAS WT = NRAS WT (Homo sapiens (Human), UniProt P01111+P62937); test: Ras-Raf (BRAF RBD) disruption / FRET / MOA assay, NRAS WT; assay type: biochemical; conditions: read-out: IC50* NRAS WT FRET data
Method in brief: as §1

KRAS WT = KRAS WT (Homo sapiens (Human), UniProt P01116+P62937); test: Ras-Raf (BRAF RBD) disruption / FRET / MOA assay, KRAS WT; assay type: biochemical
Method in brief: as §2

[1] = NCI-H358, 5-day treatment, read-out: Additional H358 Cell Viability assay data (K-Ras G12C, IC50)
[2] = Ras-Raf disruption/FRET/MOA assay, read-out: KRAS G12S FRET data IC50
[3] = read-out: IC50* NRAS G12C FRET data
[4] = read-out: IC50* KRAS G12V FRET data
[5] = read-out: IC50* KRAS G13C FRET data
[6] = read-out: IC50* KRAS G12C FRET data
[7] = Ras-Raf disruption/FRET/MOA assay, read-out: KRAS G12D FRET data IC50
[8] = read-out: IC50* KRAS WT FRET data

Sequence of NRAS G12C (P01111 whole entry G12C): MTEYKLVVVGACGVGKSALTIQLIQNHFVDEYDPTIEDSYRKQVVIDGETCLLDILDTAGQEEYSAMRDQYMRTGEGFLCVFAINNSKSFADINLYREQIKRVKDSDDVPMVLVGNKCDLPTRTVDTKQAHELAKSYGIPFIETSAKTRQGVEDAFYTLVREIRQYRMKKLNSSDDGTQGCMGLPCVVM
Sequence of NRAS G12C (P62937 whole entry): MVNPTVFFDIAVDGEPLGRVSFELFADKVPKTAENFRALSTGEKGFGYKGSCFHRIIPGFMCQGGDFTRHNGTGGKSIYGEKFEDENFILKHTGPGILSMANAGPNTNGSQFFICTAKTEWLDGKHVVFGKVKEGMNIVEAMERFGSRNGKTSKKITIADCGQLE
Sequence of KRAS WT (P01116-2 other isoform, or with tags, fused parts or gaps): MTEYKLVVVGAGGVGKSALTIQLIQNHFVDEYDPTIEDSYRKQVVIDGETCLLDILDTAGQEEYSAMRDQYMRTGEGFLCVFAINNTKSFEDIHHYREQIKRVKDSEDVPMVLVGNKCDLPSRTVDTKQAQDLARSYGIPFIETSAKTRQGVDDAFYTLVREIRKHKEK
Sequence of KRAS WT (P62937 whole entry): as the sequence (P62937 whole entry) above
Sequence of K-Ras G13C (P01116-2 other isoform, or with tags, fused parts or gaps G13C): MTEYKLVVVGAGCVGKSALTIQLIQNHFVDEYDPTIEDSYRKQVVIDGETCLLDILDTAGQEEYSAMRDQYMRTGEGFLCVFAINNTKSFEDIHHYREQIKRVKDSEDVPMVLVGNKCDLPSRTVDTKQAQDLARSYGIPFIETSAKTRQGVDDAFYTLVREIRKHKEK
Sequence of K-Ras G13C (P62937 whole entry): as the sequence (P62937 whole entry) above
Sequence of KRAS G12D (P01116-2 other isoform, or with tags, fused parts or gaps G12D): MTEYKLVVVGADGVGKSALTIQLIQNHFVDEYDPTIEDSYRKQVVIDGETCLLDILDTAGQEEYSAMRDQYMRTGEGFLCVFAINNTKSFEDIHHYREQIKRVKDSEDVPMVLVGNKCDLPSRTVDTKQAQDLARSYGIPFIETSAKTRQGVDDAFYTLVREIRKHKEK
Sequence of KRAS G12D (P62937 whole entry): as the sequence (P62937 whole entry) above
Sequence of KRAS G12S (P01116-2 other isoform, or with tags, fused parts or gaps G12S): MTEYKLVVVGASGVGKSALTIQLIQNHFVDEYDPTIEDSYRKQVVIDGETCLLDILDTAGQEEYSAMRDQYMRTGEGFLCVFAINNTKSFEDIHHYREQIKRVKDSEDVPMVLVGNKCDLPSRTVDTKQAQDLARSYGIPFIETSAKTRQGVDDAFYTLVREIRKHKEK
Sequence of KRAS G12S (P62937 whole entry): as the sequence (P62937 whole entry) above
Sequence of NRAS Q61K (P01111 whole entry Q61K): as the sequence (P01111 whole entry G12C) above, with C12G, Q61K counted along it
Sequence of NRAS Q61K (P62937 whole entry): as the sequence (P62937 whole entry) above
Sequence of KRAS Q61H (P01116-2 other isoform, or with tags, fused parts or gaps Q61H): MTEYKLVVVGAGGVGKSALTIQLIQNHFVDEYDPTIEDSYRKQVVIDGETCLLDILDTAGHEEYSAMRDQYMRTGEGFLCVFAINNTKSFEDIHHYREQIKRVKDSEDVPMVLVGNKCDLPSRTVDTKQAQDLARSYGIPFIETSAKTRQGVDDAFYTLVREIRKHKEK
Sequence of KRAS Q61H (P62937 whole entry): as the sequence (P62937 whole entry) above
Sequence of NRAS Q61R (P01111 whole entry Q61R): as the sequence (P01111 whole entry G12C) above, with C12G, Q61R counted along it
Sequence of NRAS Q61R (P62937 whole entry): as the sequence (P62937 whole entry) above
Sequence of K-Ras G12C (P01116-2 other isoform, or with tags, fused parts or gaps G12C): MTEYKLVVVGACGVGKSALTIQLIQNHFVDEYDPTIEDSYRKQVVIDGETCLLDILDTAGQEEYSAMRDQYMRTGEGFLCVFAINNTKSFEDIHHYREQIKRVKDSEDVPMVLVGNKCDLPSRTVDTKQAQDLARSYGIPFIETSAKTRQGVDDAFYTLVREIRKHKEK
Sequence of K-Ras G12C (P62937 whole entry): as the sequence (P62937 whole entry) above
Sequence of KRAS G12V (P01116-2 other isoform, or with tags, fused parts or gaps G12V): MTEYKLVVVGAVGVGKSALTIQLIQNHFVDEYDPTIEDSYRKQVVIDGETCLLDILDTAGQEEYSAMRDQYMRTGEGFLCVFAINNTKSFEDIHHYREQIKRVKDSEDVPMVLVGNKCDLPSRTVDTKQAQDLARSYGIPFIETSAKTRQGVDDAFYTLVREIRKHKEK
Sequence of KRAS G12V (P62937 whole entry): as the sequence (P62937 whole entry) above
Sequence of NRAS WT (P01111 whole entry): as the sequence (P01111 whole entry G12C) above, with C12G counted along it
Sequence of NRAS WT (P62937 whole entry): as the sequence (P62937 whole entry) above

Structure (SMILES)	IC50 (NRAS Q61R)	IC50 (NCI-H358 (K-Ras G12C); [1])	IC50 (KRAS G12S; [2])	IC50 (NRAS G12C; [3])	IC50 (KRAS G12V; [4])	IC50 (K-Ras G13C; [5])	IC50 (NRAS Q61K)	IC50 (K-Ras G12C; [6])	IC50 (KRAS G12D; [7])	IC50 (KRAS Q61H)	IC50 (NRAS WT)	IC50 (KRAS WT; [8])	IC50 (NCI-H358 (K-Ras G12C); read-out: Additional H358 Cell Viability assay data (K-Ras G12C, IC50, uM), NCI-H358, 5-day treatment)	IC50 (KRAS G12S; KRAS G12S FRET data IC50, Ras-Raf disruption/FRET/MOA assay)	IC50 (NRAS G12C; IC50* NRAS G12C FRET data)	IC50 (KRAS G12V; IC50* KRAS G12V FRET data)	IC50 (K-Ras G13C; IC50* KRAS G13C FRET data)	IC50 (K-Ras G12C; IC50* KRAS G12C FRET data)	IC50 (KRAS G12D; KRAS G12D FRET data IC50, Ras-Raf disruption/FRET/MOA assay)	IC50 (KRAS WT; IC50* KRAS WT FRET data)
C=CC(=O)N(C)[C@@H]1CCCN(C(=O)N(C)[C@H](C(=O)N[C@H]2Cc3nc(cs3)-c3ccc4c(c3)c(c(-c3cccnc3[C@H](C)OC)n4CC)CC(C)(C)COC(=O)[C@@H]3CCCN(N3)C2=O)C(C)C)C1 (atropisomer, axis not shown) [Example A382]	10 to 100 nM	< 0.01 µM	10 to 100 nM	10 to 100 nM	100 to 1000 nM	100 to 1000 nM	10 to 100 nM	10 to 100 nM	100 to 1000 nM	10 to 100 nM	10 to 100 nM	10 to 100 nM								
C=CC(=O)N(C)C1CCN(C(=O)N(C)[C@H](C(=O)N[C@H]2Cc3nc(cs3)-c3ccc4c(c3)c(c(-c3cccnc3[C@H](C)OC)n4CC)CC(C)(C)COC(=O)[C@@H]3CCCN(N3)C2=O)C(C)C)CC1 (atropisomer, axis not shown) [Example A383]	10 to 100 nM	< 0.01 µM	10 to 100 nM	10 to 100 nM	10 to 100 nM	10 to 100 nM	10 to 100 nM	10 to 100 nM	100 to 1000 nM	10 to 100 nM	10 to 100 nM	10 to 100 nM								
C=CC(=O)N1C[C@@H](C)N(C(=O)N(C)[C@H](C(=O)N[C@H]2Cc3nc(cs3)-c3ccc4c(c3)c(c(-c3cccnc3[C@H](C)OC)n4CC)CC(C)(C)COC(=O)[C@@H]3CCCN(N3)C2=O)C(C)C)[C@H](C)C1 (atropisomer, axis not shown) [Example A388]	< 10 nM	< 0.01 µM	10 to 100 nM	< 10 nM	10 to 100 nM	10 to 100 nM	< 10 nM	< 10 nM	10 to 100 nM	< 10 nM	< 10 nM	< 10 nM								
C=CC(=O)N1C[C@@H]2CN(C(=O)N(C)[C@H](C(=O)N[C@H]3Cc4nc(cs4)-c4ccc5c(c4)c(c(-c4cccnc4[C@H](C)OC)n5CC)CC(C)(C)COC(=O)[C@@H]4CCCN(N4)C3=O)C(C)C)C[C@@H]2C1 (atropisomer, axis not shown) [Example A389]	10 to 100 nM	< 0.01 µM	10 to 100 nM	10 to 100 nM	10 to 100 nM	10 to 100 nM	10 to 100 nM	10 to 100 nM	100 to 1000 nM	10 to 100 nM	10 to 100 nM	10 to 100 nM								
C=CC(=O)N(C)[C@@H]1CCN(C(=O)N(C)[C@H](C(=O)N[C@H]2Cc3nc(cs3)-c3ccc4c(c3)c(c(-c3cccnc3[C@H](C)OC)n4CC)CC(C)(C)COC(=O)[C@@H]3CCCN(N3)C2=O)C(C)C)C1 (atropisomer, axis not shown) [Example A416]	100 to 1000 nM	< 0.01 µM	100 to 1000 nM	100 to 1000 nM	100 to 1000 nM	100 to 1000 nM	10 to 100 nM	10 to 100 nM	1000 to 10000 nM	10 to 100 nM	100 to 1000 nM	100 to 1000 nM								
C=CC(=O)N1CC[C@H](C(=O)N(C)[C@H](C(=O)N[C@H]2Cc3coc(n3)-c3ccc4c(c3)c(c(-c3cccnc3[C@H](C)OC)n4CC)CC(C)(C)COC(=O)[C@@H]3CCCN(N3)C2=O)C(C)C)C1 (atropisomer, axis not shown) [Example A468]	> 10000 nM	0.01 to 0.1 µM	1000 to 10000 nM	100 to 1000 nM	1000 to 10000 nM	1000 to 10000 nM	1000 to 10000 nM	100 to 1000 nM	> 10000 nM	100 to 1000 nM	1000 to 10000 nM	1000 to 10000 nM								
C=CC(=O)N1CCN(C(=O)N(C)[C@H](C(=O)N[C@H]2Cc3nc(cs3)-c3ccc4c(c3)c(c(-c3cccnc3[C@H](C)OC)n4CC)CC(C)(C)COC(=O)[C@@H]3CCCN(N3)C2=O)C(C)C)CC1 (atropisomer, axis not shown) [Example A491]	10 to 100 nM	< 0.01 µM	10 to 100 nM	10 to 100 nM	10 to 100 nM	10 to 100 nM	10 to 100 nM	10 to 100 nM	100 to 1000 nM	10 to 100 nM	10 to 100 nM	10 to 100 nM								
C=CC(=O)N1CC[C@H](C(=O)N(C)[C@H](C(=O)N[C@H]2Cc3nc(cs3)-c3ccc4c(c3)c(c(-c3cccnc3[C@H](C)OC)n4CC(F)(F)F)CC(C)(C)COC(=O)[C@@H]3CCCN(N3)C2=O)C(C)C)C1 (atropisomer, axis not shown) [Example A502]	100 to 1000 nM	< 0.01 µM	100 to 1000 nM	100 to 1000 nM	1000 to 10000 nM	100 to 1000 nM	100 to 1000 nM	100 to 1000 nM	1000 to 10000 nM	100 to 1000 nM	100 to 1000 nM	1000 to 10000 nM								
C=CC(=O)N1CC[C@H](C(=O)N(C)[C@H](C(=O)N[C@H]2Cc3cc(CF)cc(c3)-c3ccc4c(c3)c(c(-c3cccnc3[C@H](C)OC)n4CC)CC(C)(C)COC(=O)[C@@H]3CCCN(N3)C2=O)C(C)C)C1 (atropisomer, axis not shown) [Example A503]	1000 to 10000 nM	< 0.01 µM	1000 to 10000 nM	10 to 100 nM	1000 to 10000 nM	100 to 1000 nM	1000 to 10000 nM	10 to 100 nM	1000 to 10000 nM	100 to 1000 nM	1000 to 10000 nM	1000 to 10000 nM								
C=CC(=O)N1CC[C@H](C(=O)N(C)[C@H](C(=O)N[C@H]2Cc3cccc(c3)-c3ccc4c(c3)c(c(-c3cc(CN(C)C)cnc3[C@H](C)OC)n4CC)CC(C)(C)COC(=O)[C@@H]3CCCN(N3)C2=O)C(C)C)C1 (atropisomer, axis not shown) [Example A522]	1000 to 10000 nM	< 0.01 µM	1000 to 10000 nM	100 to 1000 nM	1000 to 10000 nM	1000 to 10000 nM	1000 to 10000 nM	100 to 1000 nM	> 10000 nM	100 to 1000 nM	1000 to 10000 nM	1000 to 10000 nM								
C=CC(=O)N1CCO[C@H]2CN(C(=O)N(C)[C@H](C(=O)N[C@H]3Cc4cc(C(F)F)cc(n4)-c4ccc5c(c4)c(c(-c4cccnc4[C@H](C)OC)n5CC(F)(F)F)CC(C)(C)COC(=O)[C@@H]4CCCN(N4)C3=O)C(C)C)C[C@H]21 (atropisomer, axis not shown) [Example A540]	1000 to 10000 nM						1000 to 10000 nM			100 to 1000 nM	1000 to 10000 nM		< 0.01 µM	1000 to 10000 nM	100 to 1000 nM	1000 to 10000 nM	10 to 100 nM	100 to 1000 nM	> 10000 nM	1000 to 10000 nM
C=CC(=O)N1CCO[C@@H]2CN(C(=O)N(C)[C@H](C(=O)N[C@H]3Cc4nc(cs4)-c4ccc5c(c4)c(c(-c4cccnc4[C@H](C)OC)n5CC)CC(C)(C)COC(=O)[C@@H]4CCCN(N4)C3=O)C(C)C)C[C@H]21 (atropisomer, axis not shown) [Example A543]	100 to 1000 nM	< 0.01 µM	100 to 1000 nM	< 10 nM	100 to 1000 nM	100 to 1000 nM	10 to 100 nM	< 10 nM	1000 to 10000 nM	10 to 100 nM	100 to 1000 nM	100 to 1000 nM								
